Common to all, as to format: cell-based
One assay concerns the target BaF3_EGFRWT cells (Homo sapiens, UniProt P00533). Put plainly: Cell growth inhibition assay (CellTiterGlo), BaF3_EGFRWT. To be noted: 3-day treatment, CellTiterGlo, read-out: Cell growth inhibition activity, EGFR WT. (In general: Cellular ATP, detected with luciferase, serves as a proxy for viable cell number.)
The next assay addresses BaF3_HER2WT cells (Homo sapiens, UniProt P04626). Nature of the assay: Cell growth inhibition assay (CellTiterGlo), BaF3_HER2WT. The conditions noted are these: 3-day treatment, CellTiterGlo, read-out: Cell growth inhibition activity, HER2 WT.
For another assay, the target named is BaF3_HER2YVMA cells (Homo sapiens, UniProt P04626, DUP772-775, cells depend on it). Nature of the assay: Cell growth inhibition assay (CellTiterGlo), BaF3_HER2YVMA. The conditions noted are these: 3-day treatment, CellTiterGlo, read-out: Cell growth inhibition activity, HER2 - YVMA.
Chain of BaF3_HER2YVMA cells (P04626 with tags, fused parts or gaps DUP772-775): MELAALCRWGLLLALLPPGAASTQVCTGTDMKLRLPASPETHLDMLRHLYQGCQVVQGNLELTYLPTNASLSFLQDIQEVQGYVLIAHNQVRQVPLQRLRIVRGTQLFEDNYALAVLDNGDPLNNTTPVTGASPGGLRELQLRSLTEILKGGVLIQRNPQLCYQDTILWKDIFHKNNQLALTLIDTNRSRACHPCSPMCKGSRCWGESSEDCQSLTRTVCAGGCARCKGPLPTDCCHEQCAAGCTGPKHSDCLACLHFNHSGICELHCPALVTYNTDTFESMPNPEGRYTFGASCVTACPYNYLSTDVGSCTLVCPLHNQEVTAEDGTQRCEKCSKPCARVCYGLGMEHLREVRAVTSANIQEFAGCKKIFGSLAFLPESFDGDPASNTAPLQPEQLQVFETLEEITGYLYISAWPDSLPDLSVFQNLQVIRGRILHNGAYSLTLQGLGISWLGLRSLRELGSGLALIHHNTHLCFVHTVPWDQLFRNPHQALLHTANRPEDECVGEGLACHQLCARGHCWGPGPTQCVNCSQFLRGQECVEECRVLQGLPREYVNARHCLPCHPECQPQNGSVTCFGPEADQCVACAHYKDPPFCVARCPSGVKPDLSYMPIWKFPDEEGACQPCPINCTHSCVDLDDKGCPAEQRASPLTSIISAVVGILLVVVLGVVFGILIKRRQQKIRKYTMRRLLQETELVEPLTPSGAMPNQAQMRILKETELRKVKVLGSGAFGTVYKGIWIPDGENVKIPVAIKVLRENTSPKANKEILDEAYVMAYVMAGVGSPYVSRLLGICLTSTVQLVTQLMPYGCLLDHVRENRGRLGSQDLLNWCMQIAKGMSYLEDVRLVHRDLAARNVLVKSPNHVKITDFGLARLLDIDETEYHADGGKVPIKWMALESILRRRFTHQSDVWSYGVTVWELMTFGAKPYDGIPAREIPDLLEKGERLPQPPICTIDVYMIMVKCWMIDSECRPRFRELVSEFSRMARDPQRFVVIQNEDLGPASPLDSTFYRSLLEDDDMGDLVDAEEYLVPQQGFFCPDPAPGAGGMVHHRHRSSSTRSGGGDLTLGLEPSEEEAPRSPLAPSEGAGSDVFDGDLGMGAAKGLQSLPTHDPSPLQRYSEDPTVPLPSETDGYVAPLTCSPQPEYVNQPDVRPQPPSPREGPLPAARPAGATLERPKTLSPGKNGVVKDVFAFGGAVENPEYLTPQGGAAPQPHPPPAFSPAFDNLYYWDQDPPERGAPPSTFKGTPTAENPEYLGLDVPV

Some results are limits rather than exact numbers.

Chain of BaF3_HER2WT cells (P04626 whole entry, change not shown): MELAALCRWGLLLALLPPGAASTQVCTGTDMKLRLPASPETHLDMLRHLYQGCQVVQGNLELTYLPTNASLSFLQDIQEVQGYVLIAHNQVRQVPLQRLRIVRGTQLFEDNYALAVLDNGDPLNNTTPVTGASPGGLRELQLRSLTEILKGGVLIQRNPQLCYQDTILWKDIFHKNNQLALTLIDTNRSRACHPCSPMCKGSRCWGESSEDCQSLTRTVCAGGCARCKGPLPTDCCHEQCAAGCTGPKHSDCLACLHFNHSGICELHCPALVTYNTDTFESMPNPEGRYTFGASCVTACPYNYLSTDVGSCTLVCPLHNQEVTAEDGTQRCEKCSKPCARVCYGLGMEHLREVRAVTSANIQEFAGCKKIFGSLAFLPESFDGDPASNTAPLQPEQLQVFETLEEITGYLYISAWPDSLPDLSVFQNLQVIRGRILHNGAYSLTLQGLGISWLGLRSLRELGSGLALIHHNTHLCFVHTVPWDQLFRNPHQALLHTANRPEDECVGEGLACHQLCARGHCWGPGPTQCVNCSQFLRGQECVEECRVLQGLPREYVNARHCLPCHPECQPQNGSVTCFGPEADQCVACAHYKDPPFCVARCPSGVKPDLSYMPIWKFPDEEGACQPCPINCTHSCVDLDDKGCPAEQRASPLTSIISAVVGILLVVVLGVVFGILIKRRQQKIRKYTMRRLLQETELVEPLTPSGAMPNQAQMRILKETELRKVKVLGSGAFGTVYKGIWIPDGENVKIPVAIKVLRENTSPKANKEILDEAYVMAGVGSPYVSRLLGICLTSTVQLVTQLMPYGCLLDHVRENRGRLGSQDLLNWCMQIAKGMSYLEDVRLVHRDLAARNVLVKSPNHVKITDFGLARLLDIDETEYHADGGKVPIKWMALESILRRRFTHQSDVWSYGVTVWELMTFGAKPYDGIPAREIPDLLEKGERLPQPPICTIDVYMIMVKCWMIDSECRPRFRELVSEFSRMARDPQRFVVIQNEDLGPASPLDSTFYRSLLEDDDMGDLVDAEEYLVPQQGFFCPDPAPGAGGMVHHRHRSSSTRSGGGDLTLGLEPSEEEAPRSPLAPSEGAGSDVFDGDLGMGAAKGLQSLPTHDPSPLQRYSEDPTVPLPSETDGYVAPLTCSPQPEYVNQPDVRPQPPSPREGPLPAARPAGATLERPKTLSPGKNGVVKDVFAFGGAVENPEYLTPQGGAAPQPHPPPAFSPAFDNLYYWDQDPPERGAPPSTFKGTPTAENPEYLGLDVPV
Chain of BaF3_EGFRWT cells (P00533 whole entry, change not shown): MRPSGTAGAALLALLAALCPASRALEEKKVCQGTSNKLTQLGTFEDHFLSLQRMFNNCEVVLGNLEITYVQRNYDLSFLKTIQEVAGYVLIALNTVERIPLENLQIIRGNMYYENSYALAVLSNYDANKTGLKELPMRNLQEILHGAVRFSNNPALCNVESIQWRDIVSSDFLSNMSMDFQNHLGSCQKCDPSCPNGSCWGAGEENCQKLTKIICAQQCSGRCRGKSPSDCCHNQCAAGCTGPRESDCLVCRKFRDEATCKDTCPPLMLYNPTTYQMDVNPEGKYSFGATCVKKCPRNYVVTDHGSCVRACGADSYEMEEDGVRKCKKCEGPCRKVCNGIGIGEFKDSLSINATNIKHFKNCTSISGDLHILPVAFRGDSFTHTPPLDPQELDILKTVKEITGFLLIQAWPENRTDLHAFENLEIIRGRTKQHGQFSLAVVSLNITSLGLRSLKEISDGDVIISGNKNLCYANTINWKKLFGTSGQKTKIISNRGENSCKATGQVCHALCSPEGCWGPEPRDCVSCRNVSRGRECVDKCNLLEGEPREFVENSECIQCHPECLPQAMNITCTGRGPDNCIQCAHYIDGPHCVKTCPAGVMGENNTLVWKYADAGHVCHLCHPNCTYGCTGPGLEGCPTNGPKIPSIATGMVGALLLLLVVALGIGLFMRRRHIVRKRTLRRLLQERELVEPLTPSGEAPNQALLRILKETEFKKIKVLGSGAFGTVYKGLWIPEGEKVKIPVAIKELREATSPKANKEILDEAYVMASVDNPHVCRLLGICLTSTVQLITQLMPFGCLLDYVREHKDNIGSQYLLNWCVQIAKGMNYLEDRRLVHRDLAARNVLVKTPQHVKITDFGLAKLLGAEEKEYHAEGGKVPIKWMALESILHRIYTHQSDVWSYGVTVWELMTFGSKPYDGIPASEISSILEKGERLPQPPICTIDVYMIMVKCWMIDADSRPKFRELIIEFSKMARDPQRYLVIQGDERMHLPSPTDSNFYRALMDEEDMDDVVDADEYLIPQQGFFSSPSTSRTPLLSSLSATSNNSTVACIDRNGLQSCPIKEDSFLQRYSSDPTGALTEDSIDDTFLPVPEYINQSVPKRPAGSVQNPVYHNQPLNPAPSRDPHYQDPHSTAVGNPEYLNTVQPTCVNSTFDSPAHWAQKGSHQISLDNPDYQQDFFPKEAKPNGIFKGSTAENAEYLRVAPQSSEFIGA

Take `Cc1cc(Nc2ncnn3ccc(C4CCN(C(=O)/C=C/CN5CCN(C)CC5)CC4)c23)ccc1Oc1ccn2ncnc2c1` [Example 24, (E)-1-(4-(4-((4-([1,2,4]triazolo[1,5-a]pyridin-7-yloxy)-3-methylphenyl)amino)pyrrolo[2,1-f][1,2,4]triazin-5-yl)piperidin-1-yl)-4-(4-methylpiperazin-1-yl)but-2-en-1-one]: the GI50 on BaF3_EGFRWT cells is 1.5 to 5 µM; at BaF3_HER2WT cells it was under 0.2 µM; on BaF3_HER2YVMA cells, 0.5 to 1.5 µM.
Consider `Cc1cc(Nc2ncnn3ccc(C4CCN(C(=O)/C=C/[C@H]5CCCN5C)CC4)c23)ccc1Oc1ccn2ncnc2c1` [Example 25, (R,E)-1-(4-(4-((4-([1,2,4]triazolo[1,5-a]pyridin-7-yloxy)-3-methylphenyl)amino)pyrrolo[2,1-f][1,2,4]triazin-5-yl)piperidin-1-yl)-3-(1-methylpyrrolidin-2-yl)prop-2-en-1-one], for which the GI50 on BaF3_EGFRWT cells is 1.5 to 5 µM; on BaF3_HER2WT cells, under 0.2 µM; at BaF3_HER2YVMA cells it was under 0.2 µM.
Consider `C=C(F)C(=O)N1CC=C(c2ccn3ncnc(Nc4ccc(Oc5ccn6ncnc6c5)c(C)c4)c23)CC1` [Example 26, 1-(4-(4-((4-([1,2,4]triazolo[1,5-a]pyridin-7-yloxy)-3-methylphenyl)amino)pyrrolo[2,1-f][1,2,4]triazin-5-yl)-3,6-dihydropyridin-1(2H)-yl)-2-fluoroprop-2-en-1-one], for which the results for the GI50 on BaF3_EGFRWT cells, at BaF3_HER2WT cells and at BaF3_HER2YVMA cells were 1.5 to 5 µM, 0.2 to 0.5 µM and 1.5 to 5 µM, respectively.
On to `C=C(C#N)C(=O)N1CCC(c2ccn3ncnc(Nc4ccc(Oc5ccn6ncnc6c5)c(C)c4)c23)CC1` [Example 27, 2-(4-(4-((4-([1,2,4]triazolo[1,5-a]pyridin-7-yloxy)-3-methylphenyl)amino)pyrrolo[2,1-f][1,2,4]triazin-5-yl)piperidine-1-carbonyl)acrylonitrile], for which the GI50 at BaF3_EGFRWT cells is 1.5 to 5 µM; at BaF3_HER2WT cells it was 0.5 to 1.5 µM; on BaF3_HER2YVMA cells it was 1.5 to 5 µM.
For the molecule `C=CC(=O)N1CC=C(c2ccn3ncnc(Nc4ccc(Oc5ccn6ncnc6c5)c(C)c4)c23)C1` [Example 28, 1-(3-(4-((4-([1,2,4]triazolo[1,5-a]pyridin-7-yloxy)-3-methylphenyl)amino)pyrrolo[2,1-f][1,2,4]triazin-5-yl)-2,5-dihydro-1H-pyrrol-1-yl)prop-2-en-1-one acetate], the figures for the GI50 on BaF3_EGFRWT cells, at BaF3_HER2WT cells and on BaF3_HER2YVMA cells were 1.5 to 5 µM, under 0.2 µM and 0.5 to 1.5 µM, respectively.
As to `Cc1cc(Nc2ncnn3ccc(C4=CCN(C(=O)/C=C/CN(C)C)C4)c23)ccc1Oc1ccn2ncnc2c1` [Example 29, (E)-1-(3-(4-((4-([1,2,4]triazolo[1,5-a]pyridin-7-yloxy)-3-methylphenyl)amino)pyrrolo[2,1-f][1,2,4]triazin-5-yl)-2,5-dihydro-1H-pyrrol-1-yl)-4-(dimethylamino)but-2-en-1-one acetate], the GI50 at BaF3_EGFRWT cells is 1.5 to 5 µM; on BaF3_HER2WT cells, under 0.2 µM; at BaF3_HER2YVMA cells, 1.5 to 5 µM.
Consider `C=C(CN(C)C)C(=O)N1C2C=C(c3ccn4ncnc(Nc5ccc(Oc6ccn7ncnc7c6)c(C)c5)c34)CC1CC2` (stereo not drawn) [Example 30, 1-(3-(4-((4-([1,2,4]triazolo[1,5-a]pyridin-7-yloxy)-3-methylphenyl)amino)pyrrolo[2,1-f][1,2,4]triazin-5-yl)-8-azabicyclo[3.2.1]oct-2-en-8-yl)-2-((dimethylamino)methyl)prop-2-en-1-one acetate], for which the GI50 is 1.5 to 5 µM at BaF3_EGFRWT cells, under 0.2 µM on BaF3_HER2WT cells and under 0.2 µM at BaF3_HER2YVMA cells.
For `Cc1cc(Nc2ccn3ncnc(C4CC5CCC(C4)N5C(=O)/C=C/CN(C)C)c23)ccc1Oc1ccn2cnnc2c1` (stereo not drawn) [Example 33, (E)-1-(3-(5-((4-([1,2,4]triazolo[4,3-a]pyridin-7-yloxy)-3-methylphenyl)amino)pyrrolo[2,1-f][1,2,4]triazin-4-yl)-8-azabicyclo[3.2.1]octan-8-yl)-4-(dimethylamino)but-2-en-1-one acetate], the figures for the GI50 on BaF3_EGFRWT cells, at BaF3_HER2WT cells and at BaF3_HER2YVMA cells were 1.5 to 5 µM, under 0.2 µM and 0.2 to 0.5 µM, respectively.
Turning to `Cc1cc(Nc2ncnn3ccc(C4CCN(C(=O)C(F)Cl)CC4)c23)ccc1Oc1ccn2ncnc2c1` (stereo not drawn) [Example 35, 1-(4-(4-((4-([1,2,4]triazolo[1,5-a]pyridin-7-yloxy)-3-methylphenyl)amino)pyrrolo[2,1-f][1,2,4]triazin-5-yl)piperidin-1-yl)-2-chloro-2-fluoroethan-1-one acetate], the GI50 at BaF3_EGFRWT cells is 1.5 to 5 µM; at BaF3_HER2WT cells it was under 0.2 µM; on BaF3_HER2YVMA cells, under 0.2 µM.
As to `Cc1cc(Nc2ncnn3ccc(C4CCN(C(=O)C5CC(=O)N5)CC4)c23)ccc1Oc1ccn2ncnc2c1` (stereo not drawn) [Example 36, 4-(4-(4-((4-([1,2,4]triazolo[1,5-a]pyridin-7-yloxy)-3-methylphenyl)amino)pyrrolo[2,1-f][1,2,4]triazin-5-yl)piperidine-1-carbonyl)azetidin-2-one acetate], the GI50 at BaF3_EGFRWT cells, at BaF3_HER2WT cells and on BaF3_HER2YVMA cells was 1.5 to 5 µM in each case.
In the case of `Cc1cc(Nc2ncnn3ccc(C4CN(C(=O)/C=C/CN5CCOCC5)C4)c23)ccc1Oc1ccn2ncnc2c1` [Example 37, (E)-1-(3-(4-((4-([1,2,4]triazolo[1,5-a]pyridin-7-yloxy)-3-methylphenyl)amino)pyrrolo[2,1-f][1,2,4]triazin-5-yl)azetidin-1-yl)-4-morpholinobut-2-en-1-one], the figures for the GI50 at BaF3_EGFRWT cells, at BaF3_HER2WT cells and at BaF3_HER2YVMA cells were 1.5 to 5 µM, under 0.2 µM and under 0.2 µM, respectively.
Consider `Cc1cc(Nc2ncnn3ccc(C4CN(C(=O)/C=C/CN5CC(F)C5)C4)c23)ccc1Oc1ccn2ncnc2c1` [Example 38, (E)-1-(3-(4-((4-([1,2,4]triazolo[1,5-a]pyridin-7-yloxy)-3-methylphenyl)amino)pyrrolo[2,1-f][1,2,4]triazin-5-yl)azetidin-1-yl)-4-(3-fluoroazetidin-1-yl)but-2-en-1-one], for which the GI50 is 1.5 to 5 µM at BaF3_EGFRWT cells, under 0.2 µM on BaF3_HER2WT cells and under 0.2 µM on BaF3_HER2YVMA cells.
Turning to `COC/C=C/C(=O)N1CC(c2ccn3ncnc(Nc4ccc(Oc5ccn6ncnc6c5)c(C)c4)c23)C1` [Example 40, (E)-1-(3-(4-((4-([1,2,4]triazolo[1,5-a]pyridin-7-yloxy)-3-methylphenyl)amino)pyrrolo[2,1-f][1,2,4]triazin-5-yl)azetidin-1-yl)-4-methoxybut-2-en-1-one], the results for the GI50 at BaF3_EGFRWT cells, on BaF3_HER2WT cells and on BaF3_HER2YVMA cells were 1.5 to 5 µM, 0.2 to 0.5 µM and 0.2 to 0.5 µM, respectively.
Consider `COC1CCN(C/C=C/C(=O)N2CC(c3ccn4ncnc(Nc5ccc(Oc6ccn7ncnc7c6)c(C)c5)c34)C2)C1` (stereo not drawn) [Example 41, (E)-1-(3-(4-((4-([1,2,4]triazolo[1,5-a]pyridin-7-yloxy)-3-methylphenyl)amino)pyrrolo[2,1-f][1,2,4]triazin-5-yl)azetidin-1-yl)-4-(3-methoxypyrrolidin-1-yl)but-2-en-1-one], for which the GI50 at BaF3_EGFRWT cells was 1.5 to 5 µM; at BaF3_HER2WT cells, under 0.2 µM; on BaF3_HER2YVMA cells it was under 0.2 µM.
Regarding `COC1CCN(C/C=C/C(=O)N2CC(c3ccn4ncnc(Nc5ccc(Oc6ccn7ncnc7c6)c(C)c5)c34)C2)CC1` [Example 42, (E)-1-(3-(4-((4-([1,2,4]triazolo[1,5-a]pyridin-7-yloxy)-3-methylphenyl)amino)pyrrolo[2,1-f][1,2,4]triazin-5-yl)azetidin-1-yl)-4-(4-methoxypiperidin-1-yl)but-2-en-1-one], the GI50 was 1.5 to 5 µM on BaF3_EGFRWT cells, under 0.2 µM on BaF3_HER2WT cells and under 0.2 µM at BaF3_HER2YVMA cells.
Take `Cc1cc(Nc2ncnn3ccc(C4CN(C(=O)/C=C/CC(C)C)C4)c23)ccc1Oc1ccn2ncnc2c1` [Example 43, (E)-1-(3-(4-((4-([1,2,4]triazolo[1,5-a]pyridin-7-yloxy)-3-methylphenyl)amino)pyrrolo[2,1-f][1,2,4]triazin-5-yl)azetidin-1-yl)-5-methylhex-2-en-1-one]: the GI50 was 1.5 to 5 µM at BaF3_EGFRWT cells, under 0.2 µM at BaF3_HER2WT cells and 0.2 to 0.5 µM at BaF3_HER2YVMA cells.
`C=CC(=O)N1CC2CCC(C1)N2c1ccn2ncnc(Nc3ccc(Oc4ccn5ncnc5c4)c(C)c3)c12` [Example 44, 1-(8-(4-((4-([1,2,4]triazolo[1,5-a]pyridin-7-yloxy)-3-methylphenyl)amino)pyrrolo[2,1-f][1,2,4]triazin-5-yl)-3,8-diazabicyclo[3.2.1]octan-3-yl)prop-2-en-1-one]: the GI50 at BaF3_EGFRWT cells was 1.5 to 5 µM; on BaF3_HER2WT cells it was under 0.2 µM; on BaF3_HER2YVMA cells, under 0.2 µM.
As for `Cc1cc(Nc2ncnn3ccc(N4C5CCC4CN(C(=O)/C=C/CN(C)C)C5)c23)ccc1Oc1ccn2ncnc2c1` [Example 45, (E)-1-(8-(4-((4-([1,2,4]triazolo[1,5-a]pyridin-7-yloxy)-3-methylphenyl)amino)pyrrolo[2,1-f][1,2,4]triazin-5-yl)-3,8-diazabicyclo[3.2.1]octan-3-yl)-4-(dimethylamino)but-2-en-1-one], the GI50 on BaF3_EGFRWT cells is 1.5 to 5 µM; on BaF3_HER2WT cells, under 0.2 µM; on BaF3_HER2YVMA cells, under 0.2 µM.
Consider `C=CC(=O)N1C2CCC1CN(c1ccn3ncnc(Nc4ccc(Oc5ccn6ncnc6c5)c(C)c4)c13)C2` [Example 46, 1-(3-(4-((4-([1,2,4]triazolo[1,5-a]pyridin-7-yloxy)-3-methylphenyl)amino)pyrrolo[2,1-f][1,2,4]triazin-5-yl)-3,8-diazabicyclo[3.2.1]octan-8-yl)prop-2-en-1-one], for which the GI50 at BaF3_EGFRWT cells is 0.2 to 0.5 µM; at BaF3_HER2WT cells, under 0.2 µM; at BaF3_HER2YVMA cells it was under 0.2 µM.
Turning to `Cc1cc(Nc2ncnn3ccc(N4CC5CCC(C4)N5C(=O)/C=C/CN(C)C)c23)ccc1Oc1ccn2ncnc2c1` [Example 47, (E)-1-(3-(4-((4-([1,2,4]triazolo[1,5-a]pyridin-7-yloxy)-3-methylphenyl)amino)pyrrolo[2,1-f][1,2,4]triazin-5-yl)-3,8-diazabicyclo[3.2.1]octan-8-yl)-4-(dimethylamino)but-2-en-1-one], the GI50 was 1.5 to 5 µM at BaF3_EGFRWT cells, under 0.2 µM on BaF3_HER2WT cells and under 0.2 µM at BaF3_HER2YVMA cells.

Values taken from patent publication US20240132521A1, “COMPOUNDS AND METHODS FOR MODULATING HER2” (Iambic Therapeutics, Inc., priority 2022, published 2024).
